Results on 28 molecules are retold here after US7645752B2, “Sulfonyl substituted 1H-indoles as ligands for the 5-hydroxytryptamine receptors” (Wyeth LLC, priority 2006, dated 2010).

Structures can show the parent of a compound that is named as a salt.

In the first series the target is T1, human cloned 5-HT6 receptors (Homo sapiens, UniProt P50406).
T1 construct: expressed in transfected cells; host or cells: HeLa cells
T1 sequence (P50406 whole entry): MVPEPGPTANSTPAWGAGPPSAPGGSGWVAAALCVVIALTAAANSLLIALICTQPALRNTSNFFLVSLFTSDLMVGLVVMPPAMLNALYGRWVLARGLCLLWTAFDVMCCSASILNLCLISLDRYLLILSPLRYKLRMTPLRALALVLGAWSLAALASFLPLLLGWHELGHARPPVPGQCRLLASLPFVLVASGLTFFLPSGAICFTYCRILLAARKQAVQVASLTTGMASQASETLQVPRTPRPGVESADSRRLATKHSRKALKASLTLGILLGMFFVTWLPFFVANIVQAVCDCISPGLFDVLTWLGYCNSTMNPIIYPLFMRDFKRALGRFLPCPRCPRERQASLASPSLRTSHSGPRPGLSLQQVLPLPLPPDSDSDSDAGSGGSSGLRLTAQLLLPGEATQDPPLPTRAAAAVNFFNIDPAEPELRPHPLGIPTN
Nature of the series: 5-HT6 binding affinity, [3H]-LSD displacement on membranes of Hela cells. The conditions noted are these: Table 1; 5-HT6 binding, at 1 micromole; read-out: % inhibition at 1 micromole. The method in brief: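 Filter-bound radioactivity counted by scintillation. Binding at varying test-compound concentrations expressed as percent of specific binding without compound and plotted log % bound versus log concentration.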
By inhibition is commonly meant the change of the read-out against control, counted positive when it falls. Consider `CC(NCCc1ccc2c(S(=O)(=O)c3ccccc3)c[nH]c2c1)C(C)(C)C` (stereo not shown) [Example 105, N-{2-[3-(phenylsulfonyl)-1H-indol-6-yl]ethyl}-N-(1,2,2-trimethylpropyl)amine], for which the inhibition at 1 µM was determined as 55%. Regarding `CC(C)(C)CNCCc1ccc2c(S(=O)(=O)c3ccccc3)c[nH]c2c1` [Example 106, N-(2,2-dimethylpropyl)-N-{2-[3-(phenylsulfonyl)-1H-indol-6-yl]ethyl}amine], the inhibition at 1 µM is 67%.

Still in this series, the particulars now being: Table 1; [3H]-LSD 3.0 nM, Hela cell membranes; read-out: Ki (nM) @ 5-HT6 receptor.
In general, Ki refers to a dissociation constant, usually derived from enzyme kinetics or from competition with a known ligand. Consider `O=S(=O)(c1ccccc1)c1c[nH]c2cc(CCNCC3CCCO3)ccc12` (stereo not shown) [Example 107, N-{2-[3-(phenylsulfonyl)-1H-indol-6-yl]ethyl}-N-((tetrahydrofur-2-yl)methyl)amine], for which the inhibition constant Ki is 85 nM. On to `O=S(=O)(c1ccccc1)c1c[nH]c2cc(CCN3CCC3)ccc12` [Example 108, 6-(2-Azetidin-1-yl-ethyl)-3-phenylsulfonyl-1H-indole], for which the Ki was determined as 74 nM.

Turning to `NCCc1ccc2c(S(=O)(=O)c3ccccc3)c[nH]c2c1` [Example 109, {2-[3-(phenylsulfonyl)-1H-indol-6-yl]ethyl}amine], the Ki was 10 nM.

Test system in the next series: not given
Assay: not given
Conditions: not given
As a reminder, the melting point is the temperature of the solid-liquid transition. In turn, `CN(C)CCc1ccc2[nH]cc(S(=O)(=O)c3ccccc3)c2c1` (as salt: hydrochloride) [Example 1, N,N-dimethyl-N-{2-[3-(phenylsulfonyl)-1H-indol-5-yl]ethyl}amine] returned a melting point of 251 °C. On to `CCCNCCc1ccc2[nH]cc(S(=O)(=O)c3ccccc3)c2c1` (as salt: hydrochloride) [Example 2, N-{2-[3-(phenylsulfonyl)-1H-indol-5-yl]ethyl}-N-propylamine], for which the melting point was in the range of 189 to 192 °C. As for `CC(C)NCCc1ccc2[nH]cc(S(=O)(=O)c3ccccc3)c2c1` (as salt: hydrochloride) [Example 3, N-{2-[3-(phenylsulfonyl)-1H-indol-5-yl]ethyl}propan-2-amine], the melting point was 263 °C. The same measure, in the same setting: under `O=S(=O)(c1ccccc1)c1c[nH]c2ccc(CCNC3CC3)cc12` (as salt: hydrochloride) [Example 4, N-{2-[3-(phenylsulfonyl)-1H-indol-5-yl]ethyl}cyclopropanamine] stands 205 to 208 °C. Still for that read-out and setting: the figure for `O=S(=O)(c1ccccc1)c1c[nH]c2ccc(CCNC3CCCC3)cc12` (as salt: hydrochloride) [Example 5, N-{2-[3-(phenylsulfonyl)-1H-indol-5-yl]ethyl}cyclopentanamine] is 252 °C. Same read-out and setting: under `O=S(=O)(c1ccccc1)c1c[nH]c2ccc(CCNCc3ccccc3)cc12` (as salt: hydrochloride) [Example 6, N-benzyl-N-{2-[3-(phenylsulfonyl)-1H-indol-5-yl]ethyl}amine] stands 215 to 220 °C. `CCN(C)CCc1ccc2[nH]cc(S(=O)(=O)c3ccccc3)c2c1` (as salt: hydrochloride) [Example 7, N-ethyl-N-methyl-N-{2-[3-(phenylsulfonyl)-1H-indol-5-yl]ethyl}amine] had a melting point of 203 °C. `CCN(CC)CCc1ccc2[nH]cc(S(=O)(=O)c3ccccc3)c2c1` (as salt: hydrochloride) [Example 8, N,N-diethyl-N-{2-[3-(phenylsulfonyl)-1H-indol-5-yl]ethyl}amine] came in with a melting point of 193 to 195 °C.

In turn, `O=S(=O)(c1ccccc1)c1c[nH]c2ccc(CCN3CCCC3)cc12` (as salt: hydrochloride) [Example 9, 3-(phenylsulfonyl)-5-(2-pyrrolidin-1-ylethyl)-1H-indole] showed a melting point of 230 to 232 °C. Still for that read-out and setting: under `O=S(=O)(c1ccccc1)c1c[nH]c2ccc(CCN3CCCCC3)cc12` (as salt: hydrochloride) [Example 10, 3-(phenylsulfonyl)-5-(2-piperidin-1-ylethyl)-1H-indole] stands 272 °C. Same read-out and setting: under `O=S(=O)(c1ccccc1)c1c[nH]c2ccc(CCN3CCOCC3)cc12` (as salt: hydrochloride) [Example 11, 5-(2-morpholin-4-ylethyl)-3-(phenylsulfonyl)-1H-indole] stands 250 to 255 °C; under `NCCc1ccc2[nH]cc(S(=O)(=O)c3ccccc3)c2c1` (as salt: hydrochloride) [Example 12, {2-[3-(phenylsulfonyl)-1H-indol-5-yl]ethyl}amine], 200 °C. The same measure, in the same setting: the figure for `O=S(=O)(c1ccccc1)c1c[nH]c2ccc(CCN3CCNCC3)cc12` (as salt: hydrochloride) [Example 13, 3-(phenylsulfonyl)-5-(2-piperazin-1-ylethyl)-1H-indole] is 220 °C. Regarding `CN(C)CCc1cccc2c(S(=O)(=O)c3ccccc3)c[nH]c12` (as salt: hydrochloride) [Example 18, N,N-dimethyl-N-{2-[3-(phenylsulfonyl)-1H-indol-7-yl]ethyl}amine], the melting point was 205 to 208 °C (dec.).

The molecule `CNCCc1cccc2c(S(=O)(=O)c3ccccc3)c[nH]c12` (as salt: hydrochloride) [Example 19, N-methyl-N-{2-[3-(phenylsulfonyl)-1H-indol-7-yl]ethyl}amine] returned a melting point of 187 to 188 °C.

On to `CCCNCCc1cccc2c(S(=O)(=O)c3ccccc3)c[nH]c12` (as salt: hydrochloride) [Example 20, N-{2-[3-(phenylsulfonyl)-1H-indol-7-yl]ethyl}-N-propylamine], for which the melting point was in the range of 260 to 262 °C. Same read-out and setting: under `CC(C)NCCc1cccc2c(S(=O)(=O)c3ccccc3)c[nH]c12` (as salt: hydrochloride) [Example 21, N-{2-[3-(phenylsulfonyl)-1H-indol-7-yl]ethyl}propan-2-amine] stands 291 to 293 °C (dec.); under `O=S(=O)(c1ccccc1)c1c[nH]c2c(CCNC3CC3)cccc12` (as salt: hydrochloride) [Example 22, N-{2-[3-(phenylsulfonyl)-1H-indol-7-yl]ethyl}cyclopropanamine], 213 to 216 °C (dec.). Same read-out and setting: under `O=S(=O)(c1ccccc1)c1c[nH]c2c(CCNC3CCCC3)cccc12` (as salt: hydrochloride) [Example 23, N-{2-[3-(phenylsulfonyl)-1H-indol-7-yl]ethyl}cyclopentanamine] stands 255 to 256 °C (dec.); under `CCN(C)CCc1cccc2c(S(=O)(=O)c3ccccc3)c[nH]c12` (as salt: hydrochloride) [Example 24, N-ethyl-N-methyl-N-{2-[3-(phenylsulfonyl)-1H-indol-7-yl]ethyl}amine], 215 to 218 °C (dec.). Regarding `CCN(CC)CCc1cccc2c(S(=O)(=O)c3ccccc3)c[nH]c12` (as salt: hydrochloride) [Example 25, N,N-diethyl-N-{2-[3-(phenylsulfonyl)-1H-indol-7-yl]ethyl}amine], the melting point is 165 to 166 °C (dec.). Same read-out and setting: the figure for `O=S(=O)(c1ccccc1)c1c[nH]c2c(CCN3CCCC3)cccc12` (as salt: hydrochloride) [Example 26, 3-(phenylsulfonyl)-7-(2-pyrrolidin-1-ylethyl)-1H-indole] is 250 to 252 °C (dec.); for `O=S(=O)(c1ccccc1)c1c[nH]c2c(CCN3CCCCC3)cccc12` (as salt: hydrochloride) [Example 27, 3-(phenylsulfonyl)-7-(2-piperidin-1-ylethyl)-1H-indole] it is 231 to 233 °C.
